These results are taken from US4629793A, “2,3-di-substituted-5,6-dihydroimidazo [2,1-b] thiazole, its salts, production thereof and anti-inflammatory agent containing the same” (Toyo Jozo Kabushiki Kaisha, priority 1981, dated 1986).

Some results are limits rather than exact numbers.

In one series the test system is bovine serum albumin.
Experiment: not given
Conditions: known agents, stated "in general"; cited from earlier work.
For `CC(C)(S)[C@@H](N)C(=O)O` [D-penicillamine], the “effect on heat denaturation of bovine serum albumin” value (“effect on heat denaturation” for short) is reported as “do not inhibit the heat denaturation of bovine serum albumin but rather stimulate the protein heat denaturation”. As for `Cn1cnc([N+](=O)[O-])c1Sc1ncnc2nc[nH]c12` [azathioprine], the “effect on heat denaturation” value was “do not inhibit the heat denaturation of bovine serum albumin but rather stimulate the protein heat denaturation”. On to gold sodium thiomalate, for which the “effect on heat denaturation” value is reported as “do not inhibit the heat denaturation of bovine serum albumin but rather stimulate the protein heat denaturation”.

Take `c1ccc([C@H]2CN3CCSC3=N2)cc1` [levamisol]: the “effect on heat denaturation” value is given as “do not inhibit the heat denaturation of bovine serum albumin but rather stimulate the protein heat denaturation”.

System in the next series: not listed separately
The experiment in a line: Anti-carrageenin edema action (oral, hind foot edema). The series is classed as in vivo, Wister rats. As to conditions: Rattus norvegicus, po, 3 h, minimum dose with significant inhibition of edema 3 hours after carrageenin injection; p.o. one hour before carrageenin. As to the method:
Fasting Wister rats, male, 5-6 weeks in age, five in one group, were injected subcutaneously in the sole of the caudal foot with 1% lambda carrageenin (0.05 ml), and the increase in the volume of the foot was measured at alliquot times. Then the compound of the invention was suspended in 0.3% CMC and administered orally one hour before carrageenin injection. 0.3% CMC alone was administered as a control.
In general terms: The carrageenan paw model is a standard test of acute inflammation.
As for `CC1=C(C(=O)Nc2ccc(Cl)c(Cl)c2)SC2=NCCN21` [Compound 30], the minimal effective dose was below 25 mg/kg. Still for that read-out and setting: the figure for `CC1=C(C(=O)Nc2ccc(Cl)cc2Cl)SC2=NCCN21` [Compound 32] is 50 mg/kg; for `CC1=C(C(=O)Nc2ccccc2Cl)SC2=NCCN21.Cl` [Compound 4, 2-(2-chlorophenylcarbamoyl)-3-methyl-5,6-dihydroimidazo [2,1-b] thiazole hydrochloride] it is below 25 mg/kg. In the case of `CC1=C(C(=O)Nc2ccc(Cl)cc2C)SC2=NCCN21` [Compound 13], the minimal effective dose came out at 50 mg/kg. The same measure, in the same setting: the figure for `CC1=C(C(=O)Nc2c(Cl)cc(Cl)cc2Cl)SC2=NCCN21` [Compound 19] is 100 mg/kg; for `CCOc1ccc(NC(=O)C2=C(C)N3CCN=C3S2)cc1` [Compound 14] it is 50 mg/kg; for `COc1ccc(Cl)cc1NC(=O)C1=C(C)N2CCN=C2S1` [Compound 22] it is 100 mg/kg.

With `CC1=C(C(=O)Nc2ccccc2)SC2=NCCN21.Cl` [Compound 2, 2-phenylcarbamoyl-3-methyl-5,6-dihydro-imidazo [2,1-b] thiazole hydrochloride], the minimal effective dose was 50 mg/kg. The same measure, in the same setting: the figure for `CC1=C(C(=O)Nc2cc(Cl)ccc2Cl)SC2=NCCN21` [Compound 7, 2-(2,5-dichlorophenylcarbamoyl)-3-methyl-5,6-dihydroimidazo [2,1-b] thiazole] is 100 mg/kg; for `CC1=C(C(=O)Nc2ccccc2)SC2=NCCN21` [Compound 1, 2-phenylcarbamoyl-3-methyl-5,6-dihydro-imidazo [2,1-b] thiazole] it is 100 mg/kg.

In turn, `CCc1ccccc1NC(=O)C1=C(C)N2CCN=C2S1` [Compound 11] came in with a minimal effective dose of 50 mg/kg.

Regarding `CC1=C(C(=O)Nc2ccc(Cl)c(Cl)c2)SC2=NCCN21.Cl` [Compound 15, 2-(3,4-dichlorophenylcarbamoyl)-3-methyl-5,6-dihydroimidazo [2,1-b] thiazole hydrochloride], the minimal effective dose was below 25 mg/kg.

The molecule `CC1=C(C(=O)Nc2ccc(C)cc2Cl)SC2=NCCN21` [Compound 10] had a minimal effective dose of 50 mg/kg. Still for that read-out and setting: the figure for `COc1cc(OC)c(NC(=O)C2=C(C)N3CCN=C3S2)cc1Cl` [Compound 21] is 100 mg/kg; for `CC1=C(C(=O)Nc2ccc(Cl)cc2)SC2=NCCN21` [Compound 5] it is 50 mg/kg.

Consider `CC1=C(C(=O)Nc2ccc(Br)cc2)SC2=NCCN21` [Compound 16], for which the minimal effective dose was determined as 50 mg/kg.

The same series, now with this note: minimum dose with significant inhibition of edema 3 hours after carrageenin injection; p.o. one hour before carrageenin.
As to `CC1=C(C(=O)Nc2ccc(Cl)cc2)SC2=NCCN21` [Compound 6], the Minimum effective dose is recorded as < 25 mg/kg, p.o.

System in another series: not listed separately
Briefly: Adjuvant arthritis (chronic inflammation), oral. The series is classed as in vivo. As to conditions: administered orally, rats.
For the molecule `CC1=C(C(=O)Nc2ccc(Cl)c(Cl)c2)SC2=NCCN21.Cl` [Compound 15, 2-(3,4-dichlorophenylcarbamoyl)-3-methyl-5,6-dihydroimidazo [2,1-b] thiazole hydrochloride], the “inhibited adjuvant arthritis, at a dose of” value lay in the range of 1 to 10 mg/kg.

System in another series: not listed separately
The experiment in a line: Acute toxicity, oral. As to conditions: mouse, in vivo, mice, p.o.
`CC1=C(C(=O)Nc2ccc(Cl)c(Cl)c2)SC2=NCCN21.Cl` [Compound 15, 2-(3,4-dichlorophenylcarbamoyl)-3-methyl-5,6-dihydroimidazo [2,1-b] thiazole hydrochloride] returned an LD50 above 4000 mg/kg.

System in the next series: not listed separately
The experiment in a line: Analgesic action, acetic acid stretching method, oral. Conditions: administered orally in mice. The series is classed as in vivo.
Regarding `CC1=C(C(=O)Nc2ccc(Cl)c(Cl)c2)SC2=NCCN21.Cl` [Compound 15, 2-(3,4-dichlorophenylcarbamoyl)-3-methyl-5,6-dihydroimidazo [2,1-b] thiazole hydrochloride], the “analgesic action, at a dose of” value was found to be 25 mg/kg.

The term minimal effective dose denotes the lowest level tested that produced the effect sought. A higher minimal effective dose goes with weaker potency. The term LD50 denotes the dose at which mortality reaches 50%. A high value points to a less toxic substance.
